Legend:
m-CRHR2b = m-CRHR2b (Mus musculus, UniProt Q60748); conditions: m-CRHR2b transfected CHO-K1 cells (Lewis et al., 2001); cited from earlier work
[1] = test system: dogs with advanced heart failure; assay: Hemodynamic, angiographic, echocardiographic profile in anaesthetized dogs with advanced heart failure, IV infusion; assay type: in vivo, dog
Description: The effects of h-SCP (SEQ ID NO:1) on cardiovascular function were also assessed in anaesthetized dogs with advanced, irreversible heart failure of ischemic etiology (Sabbah et al., 1991, Am. J. Physiol., vol. 260, pp. H1379-H1384; Sabbah et al., 1994, Circulation, vol. 98, pp. 2852-2859; Chandler et al., 2002, Circ. Res., vol. 91, pp. 278-280). Progressive, advanced heart failure was produced in mongrel dogs by multiple sequential intracoronary microembolization with polystyrene latex microspheres. Dose infusions of 2.2, 4.3, and 7.3 ng/kg/min were administered intravenously over 60 minutes just following or just prior to hemodynamic, angiographic, echocardiographic, and Doppler measurements using conventional hemodynamic, angiographic, echocardiographic, and radiographic methods. The h-SCP polypeptide (SEQ ID NO:1) produced dose- (infusion-) dependent increases in LVEF and SV and decreases in left ventricular end diastolic pressure (LVEDP), left ventricular pressure during isovolumic relaxation (LV-dP/dt), systemic vascular resistance (SVR), and left ventricular end-systolic volume (LVESV) that correlated with plasma concentration. No significant change in heart rate, peak systolic aortic blood pressure, LV+dP/dt, mean pulmonary artery pressure, mean pulmonary artery wedge pressure, right atrial pressure, or myocardial oxygen consumption were recorded following any of the 1 hour intravenous infusions (Table 18 and FIGS. 12 A & B). The improvement in LV systolic and diastolic function was not associated with the development of de novo ventricular arrhythmias.
In order to determine the threshold effective dose-infusion in dogs with advanced heart failure, a further study was performed at lower dose infusions. In addition, the opportunity was taken to explore whether the increase in LVEF produced by higher dose-infusions of 4.3 ng/kg/min would remain stable over a longer infusion period, i.e. 120 minutes.
In order to understand the potential cardiovascular effects of neutralizing antibody formation to h-SCP (SEQ ID NO:1), SV30 (SEQ ID No. 118), a competitive antagonist of CRHR2, was administered to dogs (N=4) with advanced heart failure. […] These experiments with SV30 indicate that baseline cardiovascular parameters in dogs with advanced heart failure were not dependent upon endogenous hormone stimulation of CRHR2. Similar findings have been reported in healthy conscious and anaesthetized rats (Gardiner et al., J. Pharmacol. Exp. Ther., 2007, vol 321, pp. 221-226).

[2] = Table 18, IV infusion 2.2 ng/kg/min, 60 min
[3] = Table 18, IV infusion 4.3 ng/kg/min, 60 min
[4] = Table 18, IV infusion 7.3 ng/kg/min, 60 min
[5] = Table 19, IV infusion 0.22 ng/kg/min, 60 min
[6] = Table 19, IV infusion 0.43 ng/kg/min, 60 min
[7] = Table 19, IV infusion 4.3 ng/kg/min, 60 min
[8] = Table 19, IV infusion 4.3 ng/kg/min, 120 min
[9] = Table 20, SEQ ID NO: 1 4.3 ng/kg/min + AS-30

Sequence of m-CRHR2b (Q60748 1-431 isoform Q60748-2): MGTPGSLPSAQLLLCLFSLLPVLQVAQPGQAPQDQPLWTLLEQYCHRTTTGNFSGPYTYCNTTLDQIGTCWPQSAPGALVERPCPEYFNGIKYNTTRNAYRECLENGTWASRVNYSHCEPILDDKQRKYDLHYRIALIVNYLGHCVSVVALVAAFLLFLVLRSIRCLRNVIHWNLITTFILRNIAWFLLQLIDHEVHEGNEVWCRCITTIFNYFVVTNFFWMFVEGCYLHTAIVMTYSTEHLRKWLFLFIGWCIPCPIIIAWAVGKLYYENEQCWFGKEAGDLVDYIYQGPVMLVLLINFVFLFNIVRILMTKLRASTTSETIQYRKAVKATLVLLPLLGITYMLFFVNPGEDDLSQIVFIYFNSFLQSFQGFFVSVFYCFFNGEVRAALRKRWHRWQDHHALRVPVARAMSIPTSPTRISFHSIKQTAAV

## CC[C@H](C)[C@H](NC(=O)[C@H](CO)NC(=O)[C@H](CC(C)C)NC(=O)[C@@H]1CCCN1C(=O)[C@@H]1CCCN1C(=O)[C@H](CC(=O)O)NC(=O)[C@@H](N)CC(=O)O)C(=O)N[C@@H](CC(=O)O)C(=O)N[C@@H](CC(C)C)C(=O)N[C@H](C(=O)N[C@@H](Cc1ccccc1)C(=O)N[C@@H](Cc1c[nH]cn1)C(=O)N[C@@H](CC(C)C)C(=O)N[C@@H](CC(C)C)C(=O)N[C@@H](CCCNC(=N)N)C(=O)N[C@H](C(=O)N[C@@H](CC(C)C)C(=O)N[C@@H](CC(C)C)C(=O)N[C@@H](CCC(=O)O)C(=O)N[C@@H](CC(C)C)C(=O)N[C@@H](C)C(=O)N[C@@H](CCCNC(=N)N)C(=O)N[C@H](C(=O)N[C@@H](CCC(N)=O)C(=O)N[C@@H](CO)C(=O)N[C@@H](CCC(N)=O)C(=O)N[C@@H](CCCNC(=N)N)C(=O)N[C@@H](CCC(=O)O)C(=O)N[C@@H](CCCNC(=N)N)C(=O)N[C@@H](C)C(=O)N[C@@H](CCC(=O)O)C(=O)N[C@@H](CCC(N)=O)C(=O)N[C@@H](CC(N)=O)C(=O)N[C@@H](CCCNC(=N)N)C(=O)N[C@H](C(=O)N[C@H](C(=O)N[C@@H](Cc1ccccc1)C(=O)N[C@@H](CC(=O)O)C(=O)N[C@@H](CO)C(=O)N[C@H](C(N)=O)C(C)C)[C@@H](C)CC)[C@@H](C)CC)[C@@H](C)O)[C@@H](C)O)[C@@H](C)O [SEQ ID NO: 114, DDPPLSIDLTFHLLRTLLELARTQSQRERAEQNRIIFDSV-NH2]
m-CRHR2b
  Published pA50: 10.06^2

## H-TKFTLSLDVPTNIMNLLFNIAKAKNLRAQAAANAHLMAQI-NH2 [SEQ ID NO: 1, TKFTLSLDVPTNIMNLLFNIAKAKNLRAQAAANAHLMAQI-NH2]
[1]; [2]
  -ESV: 46 ± 1.7 mL
  CO: 1.56 ± 0.11 L/min
  EDV: 66 ± 2.5 mL
  EF: 31 ± 0.5^+++,a,b %
  HR: 76 ± 2 beats/min
  LV Efficiency: 23.0 ± 3.1%
  LV+dP/dt (isovolumic contraction): 1477 ± 104 mmHg/sec
  LVCBF (total left ventricular coronary blood flow): 52 ± 5 mL/min
  LVEDP (left ventricular end diastolic pressure): 13 ± 0.9^+ mmHg
  LV−dP/dt (isovolumic relaxation): 1216 ± 44 mmHg/sec
  MPAP (mean pulmonary artery pressure): 15 ± 0.5 mmHg
  MVO2 (myocardial oxygen consumption): 191 ± 14 μmols/min
  PAWP (mean pulmonary artery wedge pressure): 9.0 ± 0.6 mmHg
  PSAP: 90 ± 3 mmHg
  RAP (mean right atrial pressure): 5.7 ± 0.5 mmHg
  SV: 20 ± 0.9^+ mL
  SVR (systemic vascular resistance): 4414 ± 193 dynes-sec-cm^−5
[1]; [3]
  -ESV: 43 ± 1.7 mL
  CO: 1.61 ± 0.13 L/min
  EDV: 65 ± 2.5 mL
  EF: 33 ± 0.5^+++,c %
  HR: 73 ± 3 beats/min
  LV Efficiency: 26.0 ± 4.4%
  LV+dP/dt (isovolumic contraction): 1400 ± 71 mmHg/sec
  LVCBF (total left ventricular coronary blood flow): 57 ± 6 mL/min
  LVEDP (left ventricular end diastolic pressure): 13 ± 0.4^+ mmHg
  LV−dP/dt (isovolumic relaxation): 1094 ± 42^+ mmHg/sec
  MPAP (mean pulmonary artery pressure): 15 ± 0.5 mmHg
  MVO2 (myocardial oxygen consumption): 177 ± 19 μmols/min
  PAWP (mean pulmonary artery wedge pressure): 10 ± 0.6 mmHg
  PSAP: 87 ± 2 mmHg
  RAP (mean right atrial pressure): 5.4 ± 0.4 mmHg
  SV: 22 ± 0.9^++ mL
  SVR (systemic vascular resistance): 4144 ± 243^+ dynes-sec-cm^−5
[1]; [4]
  -ESV: 41 ± 1.8^+ mL
  CO: 1.67 ± 0.09 L/min
  EDV: 64 ± 2.4 mL
  EF: 35 ± 0.9^+++ %
  HR: 74 ± 2 beats/min
  LV Efficiency: 23.3 ± 3.2%
  LV+dP/dt (isovolumic contraction): 1398 ± 74 mmHg/sec
  LVCBF (total left ventricular coronary blood flow): 59 ± 6 mL/min
  LVEDP (left ventricular end diastolic pressure): 12 ± 0.6^++ mmHg
  LV−dP/dt (isovolumic relaxation): 1112 ± 82^+ mmHg/sec
  MPAP (mean pulmonary artery pressure): 14 ± 0.4 mmHg
  MVO2 (myocardial oxygen consumption): 196 ± 18 μmols/min
  PAWP (mean pulmonary artery wedge pressure): 9.0 ± 0.3 mmHg
  PSAP: 87 ± 2 mmHg
  RAP (mean right atrial pressure): 5.0 ± 0.4 mmHg
  SV: 22 ± 0.9^++ mL
  SVR (systemic vascular resistance): 3958 ± 182^++ dynes-sec-cm^−5
[1]; [5]
  CO: 1.37 ± 0.04 L/min
  HR: 75 ± 1.1 beats/min
  LV+dP/dt: 1842 ± 127 mmHg/sec
  LVEDP: 14 ± 1.1 mmHg
  LVEDV: 66 ± 1.5 mL
  LVEF: 28 ± 0.6%
  LVESV: 48 ± 1.2 mL
  LV−dP/dt: 1448 ± 155 mmHg/sec
  MPAP: 15 ± 0.7 mmHg
  PAWP: 10.1 ± 0.6 mmHg
  PSAP: 97 ± 3.3 mmHg
  SV: 18 ± 0.5 mL
  SVR: 4757 ± 287 dynes-sec-cm^−5
[1]; [6]
  CO: 1.50 ± 0.04 L/min
  HR: 77 ± 1.0 beats/min
  LV+dP/dt: 1691 ± 96 mmHg/sec
  LVEDP: 13 ± 1.4 mmHg
  LVEDV: 65 ± 1.1 mL
  LVEF: 30 ± 0.9%
  LVESV: 45 ± 1.2 mL
  LV−dP/dt: 1249 ± 120 mmHg/sec
  MPAP: 15 ± 0.8 mmHg
  PAWP: 9.6 ± 0.7 mmHg
  PSAP: 93 ± 3.6 mmHg
  SV: 19 ± 0.5 mL
  SVR: 4134 ± 195 dynes-sec-cm^−5
[1]; [7]
  CO: 1.68 ± 0.06^++,a,c L/min
  HR: 79 ± 2.0 beats/min
  LV+dP/dt: 1667 ± 88 mmHg/sec
  LVEDP: 12 + 1.4 mmHg
  LVEDV: 63 ± 1.3 mL
  LVEF: 34 ± 1.4^+++,b,e %
  LVESV: 42 ± 1.4^++,a mL
  LV−dP/dt: 1166 ± 82 mmHg/sec
  MPAP: 15 ± 0.8 mmHg
  PAWP: 9.0 ± 0.6 mmHg
  PSAP: 92 ± 4.1 mmHg
  SV: 21 ± 0.8^+++,a,c mL
  SVR: 3638 ± 191^+,d dynes-sec-cm^−5
[1]; [8]
  CO: 1.83 ± 0.09^+++,b,e L/min
  HR: 81 ± 3.6 beats/min
  LV+dP/dt: 1640 ± 88 mmHg/sec
  LVEDP: 12 ± 1.2 mmHg
  LVEDV: 62 ± 1.3 mL
  LVEF: 37 ± 1.2^+++,b,e %
  LVESV: 39 ± 1.4^+++,b,e mL
  LV−dP/dt: 1124 ± 92 mmHg/sec
  MPAP: 15 ± 0.9 mmHg
  PAWP: 9.4 ± 0.8 mmHg
  PSAP: 92 ± 4.3 mmHg
  SV: 23 ± 0.6^+++,a,e mL
  SVR: 3372 ± 238^++,a,c dynes-sec-cm^−5
[1]; [9]
  CO: 1.55 ± 0.08 L/min
  HR: 82 ± 4 beats/min
  LV+dP/dt: 1618 ± 79 mmHg/sec
  LVEDP: 15 ± 2 mmHg
  LVEDV: 68 ± 2.1 mL
  LVEF: 28 ± 0.5%
  LVESV: 49 ± 1.8 mL
  MPAP: 16 ± 0.8 mmHg
  PSAP: 90 ± 4 mmHg
  SV: 19 ± 0.4 mL
[1]; dogs with advanced heart failure, 60 minutes
  infusion dose with minimal effect on left ventricular systolic and diastolic function: 0.43 ng/kg/min
